This test is described as follows: Tested for inhibitory activity against Beta-glucosidase from Agrobacterium species.

Among the data in BindingDB's records for doi:10.1016/s0960-894x(01)00126-3 (Technische Universität Graz, 2001) are Ki values, retold here.

For orientation: Ki means the dissociation constant of the complex between target and ligand, obtained from inhibition or displacement. High values mean weaker binding, low ones tighter binding.

The structures appear in SMILES notation.

Regarding `CCN(CC)c1ccc2cc(C(=O)NC[C@H]3N[C@H](CO)[C@H](O)[C@@H]3O)c(=O)oc2c1` [7-Diethylamino-2-oxo-2H-chromene-3-carboxylic acid ((R)-(3R,5S)-3,4-dihydroxy-5-hydroxymethyl-pyrrolidin-2-ylmethyl)-amide], the inhibitory constant (Ki) stood at 1.2 nM.
The same measure for `CCCCCCCCCCCC(=O)NC[C@H]1N[C@H](CO)[C@H](O)[C@@H]1O` [Dodecanoic acid ((3S,4S,5R)-3,4-dihydroxy-5-hydroxymethyl-pyrrolidin-2-ylmethyl)-amide]: 100 nM; for `O=C(CCc1ccccc1)NC[C@@H]1N[C@H](CO)[C@H](O)[C@@H]1O` [N-((3S,4S,5R)-3,4-Dihydroxy-5-hydroxymethyl-pyrrolidin-2-ylmethyl)-3-phenyl-propionamide]: 150 nM; for `O=C(NC[C@H]1N[C@H](CO)[C@H](O)[C@@H]1O)c1cccc2ccccc12` [Naphthalene-1-carboxylic acid ((3S,4S,5R)-3,4-dihydroxy-5-hydroxymethyl-pyrrolidin-2-ylmethyl)-amide]: 550 nM.
